Laboratory results reported in publication PMC10112131, “Pharmacological Elevation of Cellular Dihydrosphingomyelin Provides a Novel Antiviral Strategy against West Nile Virus Infection” (Antimicrobial Agents and Chemotherapy, 2023).
Several values for one entry are separate records, joined by “and”; a condition that tells them apart may be missing. Equal values may be shown once. Entries after “also recorded” stand apart in the source; their conditions may differ. Read-outs that look alike come from different tables or passages of the source.

What was measured:
[1] = in vitro; conditions: African green monkey
[2] = test system: West Nile virus (WNV); assay: microbe, parasite or virus in culture; conditions: Vero, 24 h, read-out: EC50 WNV
[3] = test system: West Nile virus (WNV); conditions: Vero cells; for WNV infection: Fig 7
[4] = in vitro; conditions: human
[5] = test system: coxsackievirus B5 (CVB5); assay: microbe, parasite or virus in culture; assay type: cell-based, CVB5 Faulkner; conditions: for EC50: Enterovirus B, Vero, 24 h; for Antiviral efficacy against CVB5: Vero cells
[6] = test system: Usutu virus (USUV); conditions: Vero cells
[7] = test system: dengue virus (DENV-2); assay: microbe, parasite or virus in culture; conditions: DENV2, Vero, 48 h, read-out: EC50 DENV-2
[8] = test system: Vero cells; assay: Lipidomics of treated Vero cells by mass spectrometry; assay type: cell-based; conditions: 10 μM, 24 h; for Level of dihydrosphingomyelins (dhSMs): relative to control; for dhSM/SM ratio: vs vehicle, almost all dhSMs analyzed
[9] = test system: dengue virus (DENV-2); conditions: Vero cells
[10] = test system: Usutu virus (USUV); assay: microbe, parasite or virus in culture; conditions: Vero, 24 h, read-out: EC50 USUV
[11] = test system: Vero cells; conditions: low density, 24 h
[12] = test system: Vero cells; conditions: for CC50: read-out: CC50 in uninfected cells, 48-h treatment, Vero cells, ATP, 48 h
[13] = test system: WNV RVPs; assay: Entry of WNV reporter virus particles (RVPs) into Vero cells, flow cytometry; assay type: cell-based, West Nile virus; conditions: Vero pretreated 24 h, read 48 h p.i.
[14] = test system: West Nile virus (WNV); assay: microbe, parasite or virus in culture; conditions: SH-SY5Y, 24 h, read-out: EC50 WNV
[15] = test system: vesicular stomatitis virus (VSV)
[16] = test system: Zika virus (ZIKV); assay: microbe, parasite or virus in culture; conditions: Vero, 24 h, read-out: EC50 ZIKV
[17] = biological target: T1, ceramide desaturase (Des1) (Homo sapiens, UniProt O15121)
T1 sequence (O15121 1-323): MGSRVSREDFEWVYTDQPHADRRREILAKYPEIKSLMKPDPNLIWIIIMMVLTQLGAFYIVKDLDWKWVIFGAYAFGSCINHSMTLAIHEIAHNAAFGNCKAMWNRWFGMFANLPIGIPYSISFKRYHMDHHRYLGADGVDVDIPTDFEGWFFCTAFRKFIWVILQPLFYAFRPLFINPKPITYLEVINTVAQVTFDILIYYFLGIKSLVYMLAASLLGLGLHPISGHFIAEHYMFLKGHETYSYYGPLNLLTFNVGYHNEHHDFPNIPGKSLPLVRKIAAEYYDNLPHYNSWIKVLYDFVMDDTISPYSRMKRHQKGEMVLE

[18] = test system: West Nile virus (WNV); assay: Specific infectivity of WNV progeny released from treated Vero cells; assay type: cell-based; conditions: vs vehicle
[19] = test system: West Nile virus (WNV); conditions: SH-SY5Y cells
[20] = test system: Zika virus (ZIKV); conditions: Vero cells
[21] = test system: vesicular stomatitis virus (VSV); assay: microbe, parasite or virus in culture; conditions: Vero, 24 h, read-out: EC50 VSV

CCCCCCCCOC(=O)c1cc(O)c(O)c(O)c1 [AL-071]
CC50 [1]: 9.2 µM
EC50 [2]: 1.4 µM
SI (CC50/EC50) WNV [3]: 6.6

O=C(OCCCCCCCCOC(=O)c1cc(O)c(O)c(O)c1)c1cc(O)c(O)c(O)c1 [AL-072]
CC50 [1]: 23.2 µM
EC50 [2]: 3.9 µM
SI (CC50/EC50) WNV [3]: 5.9

O=C(OCCCCCCCCCCCCOC(=O)c1cc(O)c(O)c(O)c1)c1cc(O)c(O)c(O)c1 [AL-085]
CC50 [1]: 5 µM
EC50 [2]: 0.2 µM
SI (CC50/EC50) WNV [3]: 25.0

O=C(NCCCCCCCCCCCCNC(=O)c1cc(O)c(O)c(O)c1)c1cc(O)c(O)c(O)c1 [AL-088, N,N′-(dodecane-1,12-diyl)bis(3,4,5-trihydroxybenzamide)]
CC50 [4]: 87.6 µM
Mean virus yield CVB5 [5]: 8.58E+07 PFU/mL and 7.12E+07 PFU/mL and 6.85E+07 PFU/mL and 8.01E+07 PFU/mL and 6.45E+07 PFU/mL and 7.26E+07 PFU/mL and 7.43E+07 PFU/mL and 8.33E+07 PFU/mL
EC50 [5]: > 100 µM
Antiviral efficacy against CVB5 [5]: undetectable; also recorded: no antiviral activity was observed
SI (CC50/EC50) USUV [6]: >125
EC50 [7]: 7.2 µM
Level of dihydroceramides (dhCers) [8]: Significantly elevated levels
Level of sphingomyelins (SMs) [8]: slight reductions
Level of dihydrosphingomyelins (dhSMs) [8]: significant increase
dhSM/SM ratio [8]: significantly increased
SI (CC50/EC50) DENV-2 [9]: >13.9
EC50 [10]: 0.8 µM
Effect on proliferation of Vero cells [11]: only cytostatic effects on Vero cells at high concentrations
CC50 [1]: > 100 µM
CC50 [12]: > 100 µM
Number of cells infected with RVPs [13]: significantly reduced the number of infected cells
EC50 [14]: 2.2 µM
EC50 [2]: 2.2 µM
SI (CC50/EC50) VSV [15]: >4.0
EC50 [16]: 6.7 µM
IC50 [17]: 1 µM
Specific infectivity of released WNV particles [18]: significant reduction in their infectivity
SI (CC50/EC50) WNV [19]: 39.8
SI (CC50/EC50) ZIKV [20]: >14.9
SI (CC50/EC50) WNV [3]: >45.0
EC50 [21]: 25.3 µM

O=C(NCCCCCCCCCCCCNC(=O)c1ccc(O)c(O)c1O)c1ccc(O)c(O)c1O [AL-274]
CC50 [4]: 38.9 µM
Mean virus yield CVB5 [5]: 9.25E+07 PFU/mL and 7.64E+07 PFU/mL and 8.20E+07 PFU/mL and 8.13E+07 PFU/mL and 8.84E+07 PFU/mL and 6.70E+07 PFU/mL and 7.30E+07 PFU/mL and 7.92E+07 PFU/mL
EC50 [5]: > 100 µM
Antiviral efficacy against CVB5 [5]: undetectable; also recorded: no antiviral activity was observed
SI (CC50/EC50) USUV [6]: >76.9
EC50 [7]: 9.2 µM
Level of dihydrosphingomyelins (dhSMs) [8]: significant increase
dhSM/SM ratio [8]: significantly increased
SI (CC50/EC50) DENV-2 [9]: >10.8
EC50 [10]: 1.3 µM
Effect on proliferation of Vero cells [11]: only cytostatic effects on Vero cells at high concentrations
CC50 [1]: > 100 µM
CC50 [12]: > 100 µM
Number of cells infected with RVPs [13]: significantly reduced the number of infected cells
EC50 [14]: 1.9 µM
EC50 [2]: 0.24 µM
SI (CC50/EC50) VSV [15]: >2.3
EC50 [16]: 2.1 µM
IC50 [17]: 7.8 µM
Specific infectivity of released WNV particles [18]: significant reduction in their infectivity
SI (CC50/EC50) WNV [19]: 20.5
SI (CC50/EC50) ZIKV [20]: >47.6
SI (CC50/EC50) WNV [3]: >416
EC50 [21]: 43 µM

CCCCCCCCCCCCCC1=C([C@H](O)[C@@H](CO)NC(=O)CCCCCCC)C1 [GT-11, N-[(1R,2S)-2-hydroxy-1-hydroxymethyl-2-(2-tridecyl-1-cyclopropenyl)ethyl]octanamide, reference compound]
WNV infection [3]: inhibited WNV infection in a dose-dependent manner

O=C(O)c1cc(O)c(O)c(O)c1 [Gallic acid, 3,4,5-trihydroxybenzoic acid, reference compound]
CC50 [1]: > 100 µM
EC50 [2]: ~100 µM
WNV yield ([3]; Fig 1B): slight reduction in the WNV yield

CCCCCCCCCCCCCCC[C@@H](O)[C@H](COP(=O)([O-])OCC[N+](C)(C)C)NC(=O)CCCCCCCCCCC [dhSM, N-Lauroyl-D-erythro-sphinganylphosphorylcholine, reference compound]
Cell viability estimated by ATP measurements [12]: without reducing cell viability
WNV infection [3]: significantly reduced WNV infection in a dose-dependent manner
